Series [1] concerns NMRI mice. Description: Mouse formalin test, second phase, oral administration. It counts as in vivo. The conditions noted are these: 15 min before formalin, licking 20 to 25 min after injection. How it is done:
Injection of diluted formalin into the hind paw of rats or mice is known to elicit a biphasic pain-related behaviour measured as time spent by licking/biting of the injured paw. The second phase is generally defined as pain related events detected in the 15-60 min. time interval after formalin injection, with peak activity at around 30 min. It is known that NMDA receptors are involved in the second phase of response to formalin injection and this behavioural response is sensitive to blockade of NMDA receptors [Dickenson, A. and Besson J.-M. (Editors): Chapter 1, pp. 6-7: Animal models of Analgesia; and Chapter 8, pp. 180-183. Mechanism of Central Hypersensitivity: Excitatory Amino Acid Mechanisms and Their Control—In Pharmacology of Pain. Springer-Verlag (Berlin) 1997.] Therefore, we used the second phase of formalin test to characterize the efficacy of compounds in vivo. Inhibition of the second phase of response is considered to indicate an analgesic effect against chemically-induced persistent pain [Hurker, S., et al.: Formalin Test in Mice, a Useful Technique for Evaluating Mild Analgesics, Journal of Neuroscience Methods, 14 (1985) 69-76.]
Male NMRI […] (20-25 g) were used. Prior to the experiment any solid food was withdrawn for approx. 16 hours but the animals had free access to 20% glucose solution. The animals were allowed 1 hour acclimatization period in a glass cylinder (cc. 15 cm in diameter), then moved to an identical cylinder with a mirror placed behind to facilitate observation. The test substances were suspended in 5% tween-80 (10 ml per kg body weight). and administered orally by gavage 15 min before the formalin injection (20 μl of 1% formalin in 0.9& saline injected subcutaneously into the dorsal surface of the right hindpaw). The time spent by licking and biting of the injected paw was measured from 20 to 25 min. after the formalin injection.

The test system of series [2] is NMRI mice. Description: Spontaneous locomotor activity (LMA) in mice. It counts as in vivo, mouse. The conditions noted are these: oral. How it is done:
Measurement of Spontaneous Locomotor Activity in Mice
Male NMRI mice weighing 20-22 g were used in the experiments.
Spontaneous locomotor activity was measured in a four-channel activity monitor. The apparatus consisted of acrylic cages (43 cm×43 cm×32 cm) equipped with 2×16 pairs of photocells along all the bottom axis of the cage. An additional array of photocells (16 pairs) was placed along two opposite sides of the cage at the height of 10 cm in order to detect rearing responses.
Experimental groups consisted of 10 animals. Thirty minutes after the oral administration of the test compound or vehicle (tween-80), the animals were individually placed in one of four cages for one hour. Horizontal and vertical movements were determined as the number of beam interruptions for one hour at 15 ruin intervals.
Mean±SE of horizontal activity data of each group was calculated then percentual changes compared to the control (vehicle-treated) group were determined. A compound was considered to cause locomotor stimulation when its effect exceeded 50% increase in beam interruptions. Consequently, doses defined as free from stimulatory action (LMAfree) produced less than 50% increase.

The conditions of series [3]: cited from earlier work.
Series [4] concerns the target T1, recombinant NMDA receptors NR1/NR2A (HEK293 cells) (Homo sapiens, UniProt Q12879).
T1 construct: expressed in transfected cells
Description: Inhibition of NMDA evoked cytosolic calcium elevation in HEK293 cells transfected with NR1/NR2A. It counts as cell-based. The conditions noted are these: for inhibition at 15 µM: HEK293. The procedure:
Expression of Recombinant NMDA Receptors
(1997); Neurochemistry International, 43, 19-29. (2003)]. […] Compounds were tested for their inhibitory action on NMDA evoked cytosolic calcium elevations in fluorescent calcium measurements. Studies were performed 48-72 h after addition of the inducing agent. Ketamine (500 μM) was also present during the induction in order to prevent cytotoxicity.
(§1) Dose-response curves and IC50-values were calculated using data derived from at least three independent experiments. Inhibitory potency of a compound at a single concentration point was expressed as percent inhibition of the NMDA response. Sigmoidal concentration-inhibition curves were fit to the data and IC50 values were determined as the concentration that produces half of the maximal inhibition caused by the compound.

The target of series [5] is T2, NR2B containing NMDA receptors (rat cortical cells) (Rattus norvegicus, UniProt P35439+Q00960).
T2 construct: The cells at this in vitro age are believed to express predominantly NR2B containing NMDA receptors; endogenous in cells; host or cells: primary neocortical cell culture from 17 day old rat embryos, 3-7 days in vitro
Nature of the series: NMDA antagonist potency by intracellular calcium measurement with plate reader fluorimeter in rat cortical cell culture. The conditions noted are these: fluorimetric method. It counts as cell-based. The procedure:
Assessment of NMDA Antagonist Potency In Vitro by Measurement of Intracellular Calcium Concentration with a Plate Reader Fluorimeter in Rat Cortical Cell Culture
The cultures were used for the intracellular calcium measurements after 3-7 days in vitro. […] Before the measurement the cells were loaded with a fluorescent Ca^2+-sensitive dye, Fluo-4/AM (2 μM). To stop loading the cells were washed twice with the solution used for the measurement (140 mM NaCl, 5 mM KCl, 2 mM CaCl2, 5 mM HEPES, 5 mM HEPES-Na, 20 mM glucose, 10 μM glycine, pH=7.4). After washing, the test compounds were added to the cells in the above solution (90 μl well). Intracellular calcium measurements were carried out with a plate reader fluorimeter: elevation of Fluo-4-fluorescence and so, intracellular calcium concentration was induced by application of 40 μM NMDA. Inhibitory potency of the test compounds was assessed by measuring the reduction in the calcium elevation in the presence of different concentrations of the compounds.
as §1
Background: A change in cytosolic calcium serves as a functional read-out for many receptors and channels.

Where [6] appears, read: 40 μM NMDA, read-out: Rat cortical cells (NR2B) appr. IC50.

SMILES strings stand for the structures. Read-outs that look alike come from different tables or passages of the source. Marks after values point to notes of the source that are not given here.

T2 sequence (Q00960 27-1482, other chains not shown): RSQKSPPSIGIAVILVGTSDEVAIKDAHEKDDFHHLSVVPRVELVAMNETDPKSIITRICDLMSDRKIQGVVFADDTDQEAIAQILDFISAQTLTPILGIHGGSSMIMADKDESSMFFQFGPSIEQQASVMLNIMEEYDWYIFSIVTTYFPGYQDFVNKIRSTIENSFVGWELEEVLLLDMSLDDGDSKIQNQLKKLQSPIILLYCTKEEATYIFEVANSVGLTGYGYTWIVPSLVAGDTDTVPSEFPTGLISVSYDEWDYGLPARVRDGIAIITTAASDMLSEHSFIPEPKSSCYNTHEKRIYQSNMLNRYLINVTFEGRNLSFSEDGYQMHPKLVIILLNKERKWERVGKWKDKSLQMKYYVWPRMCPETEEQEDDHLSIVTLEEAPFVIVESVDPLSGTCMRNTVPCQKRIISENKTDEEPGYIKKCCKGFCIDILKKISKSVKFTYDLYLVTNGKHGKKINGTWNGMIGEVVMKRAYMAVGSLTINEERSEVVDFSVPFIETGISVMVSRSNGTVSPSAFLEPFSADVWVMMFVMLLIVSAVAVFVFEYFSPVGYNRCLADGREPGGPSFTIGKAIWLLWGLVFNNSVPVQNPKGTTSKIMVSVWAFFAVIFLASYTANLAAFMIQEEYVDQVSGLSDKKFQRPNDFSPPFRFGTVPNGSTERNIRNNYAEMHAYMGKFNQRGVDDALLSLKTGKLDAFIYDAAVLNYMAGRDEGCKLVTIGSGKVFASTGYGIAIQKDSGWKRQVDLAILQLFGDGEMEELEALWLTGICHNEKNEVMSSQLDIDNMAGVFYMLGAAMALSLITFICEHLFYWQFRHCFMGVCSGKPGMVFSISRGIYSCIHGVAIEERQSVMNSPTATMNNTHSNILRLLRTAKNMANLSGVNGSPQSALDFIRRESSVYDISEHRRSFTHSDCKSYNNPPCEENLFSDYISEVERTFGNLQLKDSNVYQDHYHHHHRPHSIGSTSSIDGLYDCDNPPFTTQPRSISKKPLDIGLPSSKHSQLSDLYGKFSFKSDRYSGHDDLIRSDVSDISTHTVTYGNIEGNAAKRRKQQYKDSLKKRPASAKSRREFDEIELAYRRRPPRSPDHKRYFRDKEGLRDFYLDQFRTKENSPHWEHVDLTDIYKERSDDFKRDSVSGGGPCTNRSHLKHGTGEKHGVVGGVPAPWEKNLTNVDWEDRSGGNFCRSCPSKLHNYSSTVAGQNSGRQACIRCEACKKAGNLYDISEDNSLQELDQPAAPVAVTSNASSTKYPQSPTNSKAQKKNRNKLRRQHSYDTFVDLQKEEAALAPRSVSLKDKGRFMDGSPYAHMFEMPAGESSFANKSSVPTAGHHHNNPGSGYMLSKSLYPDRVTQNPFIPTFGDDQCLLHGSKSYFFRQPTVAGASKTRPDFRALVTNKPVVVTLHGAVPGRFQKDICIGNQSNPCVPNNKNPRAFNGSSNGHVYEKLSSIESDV
T1 sequence (Q12879 23-1464, other chains not shown): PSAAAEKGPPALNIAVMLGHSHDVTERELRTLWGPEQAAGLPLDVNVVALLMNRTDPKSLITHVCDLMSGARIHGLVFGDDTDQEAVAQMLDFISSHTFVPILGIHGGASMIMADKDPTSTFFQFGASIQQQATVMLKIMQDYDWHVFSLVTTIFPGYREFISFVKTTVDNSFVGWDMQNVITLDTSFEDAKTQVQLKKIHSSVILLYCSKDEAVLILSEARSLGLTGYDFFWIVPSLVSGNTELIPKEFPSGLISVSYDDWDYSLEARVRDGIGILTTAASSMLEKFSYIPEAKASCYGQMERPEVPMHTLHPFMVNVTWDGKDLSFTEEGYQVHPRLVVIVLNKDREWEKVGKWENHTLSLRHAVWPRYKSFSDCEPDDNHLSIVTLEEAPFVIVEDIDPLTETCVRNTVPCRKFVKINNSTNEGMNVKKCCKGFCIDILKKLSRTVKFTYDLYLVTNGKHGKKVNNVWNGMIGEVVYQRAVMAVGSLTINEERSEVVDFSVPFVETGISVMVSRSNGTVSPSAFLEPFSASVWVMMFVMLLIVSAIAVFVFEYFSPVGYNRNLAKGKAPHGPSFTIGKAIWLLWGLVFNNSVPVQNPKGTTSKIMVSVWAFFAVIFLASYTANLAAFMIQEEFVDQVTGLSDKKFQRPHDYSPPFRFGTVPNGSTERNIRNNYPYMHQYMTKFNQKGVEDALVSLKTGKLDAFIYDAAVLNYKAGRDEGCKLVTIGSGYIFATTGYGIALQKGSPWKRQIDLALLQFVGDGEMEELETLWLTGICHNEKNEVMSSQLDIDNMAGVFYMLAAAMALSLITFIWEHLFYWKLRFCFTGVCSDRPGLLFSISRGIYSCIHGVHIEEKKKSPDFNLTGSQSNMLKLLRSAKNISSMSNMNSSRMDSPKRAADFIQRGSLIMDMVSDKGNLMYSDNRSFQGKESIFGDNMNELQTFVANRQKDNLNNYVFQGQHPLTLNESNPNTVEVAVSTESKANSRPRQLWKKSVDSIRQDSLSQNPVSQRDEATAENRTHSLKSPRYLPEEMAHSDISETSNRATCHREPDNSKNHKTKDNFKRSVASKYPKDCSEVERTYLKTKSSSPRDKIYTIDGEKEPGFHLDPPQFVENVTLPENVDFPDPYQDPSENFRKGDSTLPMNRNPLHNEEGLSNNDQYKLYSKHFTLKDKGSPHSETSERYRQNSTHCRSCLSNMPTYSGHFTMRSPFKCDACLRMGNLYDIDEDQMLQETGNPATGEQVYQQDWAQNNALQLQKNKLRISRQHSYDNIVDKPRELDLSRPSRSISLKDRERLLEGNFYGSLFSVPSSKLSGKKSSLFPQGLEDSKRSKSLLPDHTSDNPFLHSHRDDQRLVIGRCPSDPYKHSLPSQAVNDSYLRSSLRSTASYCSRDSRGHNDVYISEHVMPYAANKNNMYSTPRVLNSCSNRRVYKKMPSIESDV

Regarding `O=C(Nc1ccc2[nH]c(=O)oc2c1)C(=O)N1CCC(Cc2ccccc2)CC1` [A, 2-(4-benzyl-piperidin-1-yl)-2-oxo-N-(2-oxo-2,3-dihydro-benzoxazol-6-yl)-acetamide], the ED50 in the series with NMRI mice [1] was determined as 0.85 mg/kg. For the same compound, the LMA % increase in the series on NMRI mice [2] (dose 1 mg/kg) is listed as 34* %; in the series with NMRI mice [2] (dose 3 mg/kg), 62%. Consider `Cc1ccc(CC2CCN(C(=O)C(=O)Nc3ccc4c(c3)CC(=O)N4)CC2)cc1` [B, 2-[4-[4-methyl-benzyl)-piperidin-1-yl]-2-oxo-N-(2-oxo-2,3-dihydro-1H-indol-5-yl)-acetamide], for which the ED50 with NMRI mice [1] is 0.48 mg/kg. Besides, the LMA % increase turned out to be 72% in the series with NMRI mice [2] (dose 3.75 mg/kg) and 141% in the series with NMRI mice [2] (dose 7.5 mg/kg).

In the series with NMRI mice [1], `O=c1[nH]c2ccc([S+]([O-])CCN3CCC(Cc4ccc(F)cc4)CC3)cc2o1` (stereo not drawn) [CI-1041, 6-{2-[4-(4-fluoro-benzyl)-piperidin-1-yl]-ethanesulfinyl}-3H-benzooxazol-2-one] gave an ED50 of 2.4 mg/kg. Besides, the LMA % inc. with NMRI mice [2] (dose 10 mg/kg) amounted to 137%. Compound `C[C@@H]([C@@H](O)c1ccc(O)cc1)N1CCC(O)(c2ccccc2)CC1` [CP-101,606, (1S,2S)-1-(4-hydroxyphenyl)-2-(4-hydroxy-4-phenylpiperidine-1-yl)-1-propanol] showed a 50% effective dose (ED50) in the series on NMRI mice [1] of over 20 mg/kg. The “effect on locomotor activity” value in series [3] (other group, Neuropharmacology 38 (1999)) is recorded as “no such effect was observed”. The locomotor stimulating effect result in series [3] (up to 56 mg/kg s.c. and 100 mg/kg i.p., Soc. Neurosc. Abstr. 21 (1995)) was “Lack of locomotor stimulating effect”. Compound `O=C(Nc1ccc2[nH]c(=O)oc2c1)C(=O)N1CCC(=Cc2ccccc2)CC1` [Compound 1, 2-(4-Benzylidene-piperidine-1-yl)-2-oxo-N-(2-oxo-2,3-dihydro-benzooxazol-6-yl)-acetamide] had an ED50 with NMRI mice [1] of 1 mg/kg. The LMA % increase with NMRI mice [2] (dose 60 mg/kg) is on record as 35* %; in the series on NMRI mice [2] (dose 120 mg/kg), 69%. For the same compound, in series [4], the inhibition at 15 µM was under 30%. Also, the IC50 in series [5] (setting [6]) is under 50 nM. As to `Cn1c(=O)[nH]c2ccc(NC(=O)C(=O)N3CCC(=Cc4ccccc4)CC3)cc21` [Compound 3], in series [5] (setting [6]), the IC50 was 50 to 500 nM.

Consider `O=C(Nc1ccc2[nH]c(=O)sc2c1)C(=O)N1CCC(=Cc2ccccc2)CC1` [Compound 5], for which the inhibition at 15 µM in series [4] was under 30%. Further, the IC50 in series [5] (setting [6]) is under 50 nM. For `O=C(Nc1ccc2[nH]c(=S)oc2c1)C(=O)N1CCC(=Cc2ccccc2)CC1` [Compound 6], the concentration for half-maximal inhibition (IC50) in series [5] (setting [6]) was 50 to 500 nM. For `O=C1COc2cc(NC(=O)C(=O)N3CCC(=Cc4ccccc4)CC3)ccc2N1` [Compound 7], the IC50 in series [5] (setting [6]) was 500 to 1000 nM. With `CS(=O)(=O)Nc1ccc(NC(=O)C(=O)N2CCC(=Cc3ccccc3)CC2)cc1` [Compound 10], the half-maximal inhibitory concentration (IC50) in series [5] (setting [6]) fell in the range of 50 to 500 nM. Same read-out and setting: the same measure for `O=C(Nc1ccc2[nH]c(=O)oc2c1)C(=O)N1CCC(=Cc2ccc(Cl)cc2)CC1` [Compound 11]: under 50 nM. For `O=C(Nc1ccc2[nH]c(=O)[nH]c2c1)C(=O)N1CCC(=Cc2ccc(Cl)cc2)CC1` [Compound 12], the IC50 in series [5] (setting [6]) was under 50 nM. Same read-out and setting: the value for `Cn1c(=O)[nH]c2ccc(NC(=O)C(=O)N3CCC(=Cc4ccc(Cl)cc4)CC3)cc21` [Compound 13] was 50 to 500 nM. Still for that read-out and setting: the same measure for `O=C1Cc2cc(NC(=O)C(=O)N3CCC(=Cc4ccc(Cl)cc4)CC3)ccc2N1` [Compound 14]: 50 to 500 nM; for `O=C(Nc1ccc2[nH]c(=O)sc2c1)C(=O)N1CCC(=Cc2ccc(Cl)cc2)CC1` [Compound 15]: under 50 nM. Still for that read-out and setting: the value for `O=C(Nc1ccc2[nH]c(=S)oc2c1)C(=O)N1CCC(=Cc2ccc(Cl)cc2)CC1` [Compound 16] was 50 to 500 nM; that for `O=C1COc2cc(NC(=O)C(=O)N3CCC(=Cc4ccc(Cl)cc4)CC3)ccc2N1` [Compound 17] was 500 to 1000 nM; that for `CS(=O)(=O)Nc1ccc(NC(=O)C(=O)N2CCC(=Cc3ccc(Cl)cc3)CC2)cc1` [Compound 20] was 50 to 500 nM. For `Cc1ccc(C=C2CCN(C(=O)C(=O)Nc3ccc4[nH]c(=O)[nH]c4c3)CC2)cc1` [Compound 22], the inhibition at 15 µM in series [4] is under 30%. Also, in series [5] (setting [6]), the half-inhibitory concentration (IC50) was under 50 nM. On to `Cc1ccc(C=C2CCN(C(=O)C(=O)Nc3ccc4[nH]c(=O)n(C)c4c3)CC2)cc1` [Compound 23], for which, in series [5] (setting [6]), the IC50 was in the range of 50 to 500 nM. The same measure, in the same setting: the value for `Cc1ccc(C=C2CCN(C(=O)C(=O)Nc3ccc4[nH]c(=O)sc4c3)CC2)cc1` [Compound 25] was under 50 nM; that for `Cc1ccc(C=C2CCN(C(=O)C(=O)Nc3ccc4[nH]c(=S)oc4c3)CC2)cc1` [Compound 26] was 50 to 500 nM. The same measure, in the same setting: the value for `Cc1ccc(C=C2CCN(C(=O)C(=O)Nc3ccc4c(c3)OCC(=O)N4)CC2)cc1` [Compound 27] was 50 to 500 nM; that for `Cc1ccc(C=C2CCN(C(=O)C(=O)Nc3ccc(NS(C)(=O)=O)cc3)CC2)cc1` [Compound 30] was 50 to 500 nM. `COc1ccc(C=C2CCN(C(=O)C(=O)Nc3ccc4[nH]c(=O)[nH]c4c3)CC2)cc1` [Compound 32]: the inhibition at 15 µM in series [4] is under 30%. Also, in series [5] (setting [6]), the IC50 was under 50 nM. As for `COc1ccc(C=C2CCN(C(=O)C(=O)Nc3ccc4[nH]c(=O)n(C)c4c3)CC2)cc1` [Compound 33], the half-inhibitory concentration (IC50) in series [5] (setting [6]) is 50 to 500 nM.

For the compound `COc1ccc(C=C2CCN(C(=O)C(=O)Nc3ccc(NS(C)(=O)=O)cc3)CC2)cc1` [Compound 40], in series [4], the inhibition at 15 µM is under 30%. The IC50 in series [5] (setting [6]) was under 50 nM. Turning to `O=C(Nc1ccc2[nH]c(=O)oc2c1)C(=O)N1CCC(=Cc2ccc(F)cc2)CC1` [Compound 41], in series [4], the inhibition at 15 µM is under 30%. For the same compound, the IC50 in series [5] (setting [6]) was under 50 nM. Take `O=C1Cc2cc(NC(=O)C(=O)N3CCC(=Cc4ccc(F)cc4)CC3)ccc2N1` [Compound 42]: the IC50 in series [5] (setting [6]) was in the range of 500 to 1000 nM. For the compound `O=C(CCN1CCC(Cc2ccc(F)cc2)CC1)c1ccc2[nH]c(=O)oc2c1` [EMD 95885, reference compound], the “NR1-3/NR2A % inhibition at 10 μM” value in series [4] (10 μM) is 0.1%. Also, the IC50 in series [5] (reference compounds, read-out: rat cortical cells IC50) worked out at 35 nM.

As for `C[C@]12N[C@H](Cc3ccccc31)c1ccccc12` [MK-801, (+)-5-Methyl-10,11-dihydro-5H-dibenzo[a,d]cyclohepten-5,10-imine], in the series with NMRI mice [1], the ED50 is 0.15 mg/kg. The LMA % inc. turned out to be 114% with NMRI mice [2] (dose 0.1 mg/kg) and 217% in the series with NMRI mice [2] (dose 0.3 mg/kg). On to `Cc1ccc(CC2(O)CCN(CCOc3ccc(O)cc3)CC2)cc1` [Ro 63-1908], for which the “effect on locomotor activity” value in series [3] (J. Pharmacol. Exp. Ther. 302 (2002), Behav. Pharmacol. 14 (2003)) is reported as “increase locomotor activity”.

The term ED50 denotes the dose at which the effect has come halfway, by size or by number of responders. A high value points to weaker potency. What is called inhibition is the drop in the measured response relative to a control, in per cent. Usually IC50 stands for the concentration that gives 50% inhibition.
